The values that follow come from US20050069532A1, “Treatment of bacterial infection with elastase” (priority 2002, published 2005).

Data set [1] concerns human neutrophils infected with Shigella. The format is cell-based. The note with it: 20 μM.
Data set [2] deals with human neutrophils infected with wild type Shigella. The format is cell-based. The following applies: 20 μM, 10 bacteria/neutrophil.
Data set [3] concerns human neutrophils infected with Shigella. The note with it: 20 μM, LDH release after 2 h incubation. Background: LDH in the medium is a marker of cell lysis.
For data set [4], the system named is neutrophils. The note with it: cited from earlier work.
The test system of data set [5] is neutrophils. Briefly: Cytotoxicity of inhibitor by lactate dehydrogenase (LDH) release.
In data set [6] the test system is Shigella virulence proteins (IpaA, IpaB, IpaC, IcsA). It counts as biochemical, Shigella flexneri.
Data set [7] concerns wild-type Shigella flexneri (M90T). The format is cell-based.
In data set [8] the test system is MxiA and MxiD. It counts as biochemical, Shigella.
The subject of data set [9] is Secreted proteins from Shigella. The format is biochemical.
The test system of data set [10] is Secreted proteins from wild type Salmonella typhimurium (strain SL1344). It counts as biochemical.
The test system of data set [11] is InvG.
In data set [12] the test system is OmpA of nonpathogenic Escherichia coli. The following applies: 4 h with 106 bacteria; cited from earlier work.
In data set [13] the target is neutrophil elastase in hNEGP (Homo sapiens, UniProt P08246). The format is biochemical.
Data set [14] deals with T1, Neutrophil elastase (Homo sapiens, UniProt P08246).
T1 sequence (P08246 30-267): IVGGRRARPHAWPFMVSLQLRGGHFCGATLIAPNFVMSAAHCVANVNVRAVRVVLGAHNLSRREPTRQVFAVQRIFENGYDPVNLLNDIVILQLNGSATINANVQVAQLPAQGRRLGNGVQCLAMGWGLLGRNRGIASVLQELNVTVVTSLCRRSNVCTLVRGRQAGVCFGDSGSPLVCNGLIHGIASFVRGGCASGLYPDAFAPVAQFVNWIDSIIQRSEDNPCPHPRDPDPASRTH
As to the kind of experiment: Neutrophil elastase enzymatic assay in hNEGP (N-methoxysuccinyl-Ala-Ala-Pro-Val-p-nitroanilide substrate). The following applies: hNEGP pretreated with inhibitor (PMSF 1 mM, rm temp 20 min).
Protocol: Neutrophil elastase activity of intact neutrophils was determined as previously described (Huang et al., “Effect of Trifluoromethyl Ketone-Based Elastase Inhibitors on Neutrophil Function in Vitro,” J Leukoc Biol 64:322-330 (1998), which is hereby incorporated by reference).

Data set [15] relates to neutrophil elastase. The following applies: cited from earlier work.
The subject of data set [16] is Cathepsin G. The following applies: cited from earlier work.
For data set [17], the system named is Proteinase 3. The following applies: cited from earlier work.

Residues, ends and D or L forms follow the SMILES beside them. *: point of attachment. MeOSuc = COC(=O)CCC(=O)*; CH2Cl = ClC*

OmpA of nonpathogenic Escherichia coli, sequence (P0A910 22-346): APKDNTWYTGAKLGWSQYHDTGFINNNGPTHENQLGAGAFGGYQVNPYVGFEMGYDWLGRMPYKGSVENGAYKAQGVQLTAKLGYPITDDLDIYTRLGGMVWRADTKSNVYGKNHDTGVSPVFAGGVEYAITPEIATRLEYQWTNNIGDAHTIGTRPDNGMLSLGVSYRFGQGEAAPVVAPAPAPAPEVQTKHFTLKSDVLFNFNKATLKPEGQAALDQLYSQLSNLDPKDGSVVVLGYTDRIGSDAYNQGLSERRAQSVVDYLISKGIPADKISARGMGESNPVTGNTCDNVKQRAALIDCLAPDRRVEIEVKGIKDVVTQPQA
InvG, sequence (P35672 25-562): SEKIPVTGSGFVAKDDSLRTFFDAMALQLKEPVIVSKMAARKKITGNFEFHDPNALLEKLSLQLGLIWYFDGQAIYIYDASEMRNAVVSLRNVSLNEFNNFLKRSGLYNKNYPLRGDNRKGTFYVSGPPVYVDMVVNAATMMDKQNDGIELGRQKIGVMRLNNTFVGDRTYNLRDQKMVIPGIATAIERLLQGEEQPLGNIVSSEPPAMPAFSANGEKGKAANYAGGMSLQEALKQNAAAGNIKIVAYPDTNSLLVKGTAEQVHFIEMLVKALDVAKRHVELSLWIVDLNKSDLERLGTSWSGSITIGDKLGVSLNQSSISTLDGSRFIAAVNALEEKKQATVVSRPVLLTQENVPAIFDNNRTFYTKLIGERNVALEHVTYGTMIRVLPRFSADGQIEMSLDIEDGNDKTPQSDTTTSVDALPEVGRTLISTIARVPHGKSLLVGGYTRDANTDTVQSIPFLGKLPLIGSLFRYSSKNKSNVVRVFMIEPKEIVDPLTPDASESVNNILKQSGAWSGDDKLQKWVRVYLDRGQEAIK

Regarding `CC(C)C(NC(=O)[C@@H]1CCCN1C(=O)[C@@H](NC(=O)c1ccc(C(=O)NS(=O)(=O)c2ccc(Br)cc2)cc1)C(C)C)C(=O)C(F)(F)F` (stereo partly drawn) [ICI-200355], the “location of non-invasive Shigella strain in neutrophils incubated with inhibitor” value in [1] is “remained in the phagosome”. Further, the “location of wild type Shigella in neutrophils pre-incubated with inhibitor” value in data set [1] (fixed 30 min post-infection) was “free in the cytoplasm”. The “Shigella survival in inhibitor-treated neutrophils versus controls” value in data set [2] is reported as “survived indeed better”. For the same molecule, the “neutrophil cell death with noninvasive Shigella control strains after inhibitor pretreatment” value in data set [3] is “no cell death”. In data set [4], the “effect on ingestion or killing of non-virulent bacteria” value is “does not affect”. Further, in [5], the “cytotoxicity (LDH release)” value is listed as “not cytotoxic”.

For Cathepsin G, the “degradation of Shigella effectors” value in data set [6] was “did not degrade”.

Consider neutrophil elastase, for which the “neutrophil elastase concentration affecting bacterial viability” value in data set [7] is reported as > 2,000 nM. Further, in data set [6], the “degradation of OmpA in Shigella or E. coli” value is “not degraded”, the “neutrophil elastase concentration at which IcsA was degraded” value is on record as 1.2 nM and the “neutrophil elastase concentration that cleaved Shigella virulence proteins significantly” value is recorded as not below 1.2 nM. Besides, the “degradation of MxiA and MxiD” value in data set [8] is on record as “not degraded”. For the same molecule, in [9], the “cleavage of proteins not associated with virulence (SepA and OspF)” value is on record as “remained intact”; the “cleavage of virulence factors (e.g. VirA and the Ipas)” value is on record as “cleaved”. In addition, in data set [10], the “degradation of FliB and FliC” value is given as “not degraded”; the “degradation of SipA, B, C and HAPs” value is “degraded”. In addition, the “degradation of InvG” value in data set [11] is “not degraded”. Moreover, the “neutrophil elastase concentration that partially digests OmpA” value in [12] is 2 µM.

For the molecule `COC(=O)CCC(=O)N[C@@H](C)C(=O)N[C@@H](C)C(=O)N1CCC[C@H]1C(=O)N[C@H](C(=O)CCl)C(C)C` [MeOSuc-AAPV-cmk, MeOSucAlaAlaProVal-chloromethyl ketone] (MeOSuc-AAPV-CH2Cl), the “blocking of hNEGP degradation of IpaA, B, C and IcsA” value (shortened to “blocking”) in data set [13] is “effectively blocked degradation”. The “inhibition of neutrophil elastase activity in hNEGP” value (from here on “inhibition”) in data set [14] is given as “completely inhibited”.

For `O=S(=O)(F)Cc1ccccc1` [PMSF, phenylmethylsulfonyl fluoride], in [13], the “blocking” value was “blocked the degradation”. Moreover, the “inhibition” value in data set [14] is “completely inhibited”.

B1: SLPI: physiologic inhibitor, human Secretory Leukocyte Protease Inhibitor (protein, UniProt P03973 26-132, looked up)
Antileukoproteinase: SGKSFKAGVCPPKKSAQCLRYKKPECQSDWQCPGKKRCCPDTCGIKCLDPVDTPNPTRRKPGKCPVTYGQCLMLNPPNFCEMDGQCKRDLKCCMGMCGKSCVSPVKA
On to B1, for which, in data set [13], the “blocking” value was “effectively blocked degradation”. In addition, the “block of neutrophil elastase” value in data set [15] is on record as “blocks”. Besides, the “block of Cathepsin G” value in [16] was “blocks”. In addition, the “block of Proteinase 3” value in data set [17] is given as “not”. In addition, the “inhibition” value in data set [14] was “completely inhibited”.
